Assay results published in PMC2848589, “Raltegravir Is a Potent Inhibitor of XMRV, a Virus Implicated in Prostate Cancer and Chronic Fatigue Syndrome” (PLoS ONE, 2010).
Where two headings read alike, the source gives them in different places.

Columns and labels:
XMRV = XMRV replication in MCF-7 cells (viral release by RT activity in supernatant); format: cell-based; conditions: for EC90 / EC50: MCF7, 144 h; for EC90: read-out: XMRV in MCF-7 cells EC90; for EC50: read-out: XMRV in MCF-7 cells EC50; for activity against XMRV (in words): tested up to 100 µM, Figure 1
HIV-1LAI = experiment: HIV-1 replication in PHA-stimulated peripheral blood mononuclear cells; format: cell-based; conditions: Human immunodeficiency virus 1, PBMC; for EC50: read-out: HIV-1 in PBM cells EC50; for EC90: read-out: HIV-1 in PBM cells EC90
Procedure: (§1) We tested a total of 45 compounds belonging to different classes of HIV-1 inhibitors, and a few inhibitors of viruses other than retroviruses, for their ability to inhibit XMRV replication in cultured cells. LNCaP and MCF-7 cells were chosen for their ability to support robust in vitro replication of XMRV. […] To determine if a reduction in viral release might be due to toxicity of the compound and not due to specific antiretroviral activity, cellular morphology was monitored every 24 h by microscopic examination, and an MTT [3-(4,5-dimethylthiazol-2-yl)-2,5-diphenyltetrazolium bromide] colorimetric assay was used to measure potential cytotoxicity produced by the compounds. Supernatants were collected every 24 h and assayed for viral release by measuring RT activity. […] For comparison purposes, all compounds evaluated in these studies were also tested against HIV-1LAI in primary human lymphocytes.
(§2) Each well was carefully monitored for signs of cellular toxicity due to the inhibitors by microscopic observation every 24 h. In addition, cell viability was measured using the CellTiter 96 AQueous One Solution cell proliferation assay according to the manufacturer (Promega, Madison, Wis). Viral release from the cells was assayed by measuring RT activity in the supernatant. For this, supernatant from each well was collected every 24 h and frozen at −20°C until it was analyzed by RT assay for viral release as described previously. In brief, oligo(dT)·poly(rA) primer-template assays were performed in the presence of radiolabeled [α-^32P]dTTP and Mn^2+. After incubating the viral supernatants with the RT reaction mix for 1 h at 37°C, samples were spotted onto DE81 DEAE cellulose paper (Whatman) and unincorporated label washed away with 2× SSC (1× SSC = 0.15 M NaCl and 0.015 M sodium citrate). […] Inhibition of viral release as measured on day 6 after inoculation was averaged over 3–5 experiments and plotted. The antiviral EC50 and cytotoxic concentrations (CC50,) was determined from the concentration–response curve using the median effect method. HIV-1 replication assays were performed as described previously using peripheral blood mononuclear cells (PBMC) obtained from the American Red Cross, Atlanta, GA, that were stimulated with phytohemagglutinin (PHA) for 72 hr.

[1] = Cytotoxicity in MCF-7 cells (MTT / CellTiter 96 AQueous One); format: cell-based, human; conditions: human
Procedure: as §1, §2

[2] = Cytotoxicity in PBM cells; format: cell-based; conditions: human, read-out: HIV-1 in PBM cells CC50
Procedure: as §2

[3] = XMRV-infected MCF-7 cells, RT activity in supernatant, day 6
[4] = peripheral blood mononuclear (PBM) cells
[5] = MCF-7 cells, read-out: XMRV in MCF-7 cells CC50

SMILES | EC90 (XMRV) | EC50 (XMRV; [3]) | EC50 (HIV-1LAI) | EC90 (HIV-1LAI) | EC50 (XMRV) | activity against XMRV (in words) (XMRV) | CC50 [1] | CC50 [2, 4] | CC50 [1, 5] | CC50 [2] | therapeutic index (TI, the ratio of CC50/EC50) (XMRV; XMRV, MCF-7 cells)
CC(C)c1nc(CN(C)C(=O)N[C@H](C(=O)N[C@@H](Cc2ccccc2)C[C@H](O)[C@H](Cc2ccccc2)NC(=O)OCc2cncs2)C(C)C)cs1 [Ritonavir] | > 100 µM | 76.4 µM | 150 nM | 400 nM | – | – | – | – | – | – | –
Nc1ccn([C@@H]2CS[C@H](CO)O2)c(=O)n1 [Lamivudine (3TC), Lamivudine] | > 100 µM | – | 85 nM | 360 nM | > 100 µM | essentially inactive | > 100 µM | 41.9 µM | – | – | –
CC(C)=CCN1Cc2c(Cl)ccc3[nH]c(=S)n(c23)C[C@@H]1C [TIBO analog, (4S)-8-Chloro-4-methyl-5-(3-methylbut-2-enyl)-3,4,5,6-tetrahydro-1H-[1], [3]diazepino[4,5,6-cd]indole-2(2aH)-thione] | – | – | – | – | – | did not demonstrate any major activity | – | – | – | – | –
O=C1Nc2ccc(Cl)cc2[C@@](C#CC2CC2)(C(F)(F)F)O1 [Efavirenz] | 93 µM | – | 0.73 nM | 2.7 nM | 51.6 µM | did not demonstrate any major activity | – | 18.4 µM | 60.4 µM | – | –
CC(C)(C)NC(=O)[C@@H]1C[C@@H]2CCCC[C@@H]2CN1C[C@@H](O)[C@H](Cc1ccccc1)NC(=O)[C@H](CC(N)=O)NC(=O)c1ccc2ccccc2n1 [Saquinavir] | > 100 µM | – | 6.4 nM | 21 nM | > 100 µM | essentially ineffective | 53.7 µM | 26.7 µM | – | – | –
COC(=O)N[C@H](C(=O)N[C@@H](Cc1ccccc1)[C@@H](O)CN(Cc1ccc(-c2ccccn2)cc1)NC(=O)[C@@H](NC(=O)OC)C(C)(C)C)C(C)(C)C [Atazanavir] | > 100 µM | 64.8 µM | 6.7 nM | 22 nM | – | – | – | 27.2 µM | 40.7 µM | – | –
C=C1[C@H](CO)[C@@H](O)C[C@@H]1n1cnc2c(=O)[nH]c(N)nc21 [Entecavir (ETV), Entecavir] | > 100 µM | – | 2100 nM | 16300 nM | > 100 µM | – | 93.3 µM | 25.2 µM | – | – | –
O=c1[nH]cnc2c1ncn2[C@H]1CC[C@@H](CO)O1 [Videx (DDI), Videx] | > 100 µM | – | 290 nM | 2200 nM | > 100 µM | essentially inactive | > 100 µM | > 100 µM | – | – | –
Nc1nc(NC2CC2)c2ncn([C@H]3C=C[C@@H](CO)C3)c2n1 [Abacavir] | > 100 µM | – | 170 nM | 1700 nM | > 100 µM | – | – | 92.9 µM | 92.6 µM | – | –
CC(O)(CS(=O)(=O)c1ccc(F)cc1)C(=O)Nc1ccc(C#N)c(C(F)(F)F)c1 (centres unmarked) [Bicalutamide] | 63.2 µM | – | – | – | 53 µM | – | 8.2 µM | – | – | – | –
Cc1cn([C@@H]2C[C@@H](O)[C@H](CO)O2)c(=O)[nH]c1=O [Telbivudine (LdT), Telbivudine] | > 100 µM | – | > 100000 nM | > 100000 nM | > 100 µM | – | 88.3 µM | > 100 µM | – | – | –
Nc1nc(N)c2ncn([C@H]3CO[C@@H](CO)O3)c2n1 [Amdoxovir (DAPD, AMDX), Amdoxovir] | > 100 µM | – | 830 nM | 4800 nM | > 100 µM | essentially inactive | – | > 100 µM | > 100 µM | – | –
Cc1cccc(C)c1OCC(=O)N[C@@H](Cc1ccccc1)[C@@H](O)C[C@H](Cc1ccccc1)NC(=O)[C@H](C(C)C)N1CCCNC1=O [Lopinavir] | > 100 µM | 72.2 µM | 11 nM | 29 nM | – | – | 8.5 µM | 36 µM | – | – | –
CCN(CC)CCCC(C)Nc1ccnc2cc(Cl)ccc12 (centres unmarked) [Chloroquine] | > 100 µM | – | 9000 nM | 21600 nM | 56.9 µM | – | – | – | – | – | –
Cc1c(O)cccc1C(=O)N[C@@H](CSc1ccccc1)[C@H](O)CN1C[C@H]2CCCC[C@H]2C[C@H]1C(=O)NC(C)(C)C [Nelfinavir] | > 100 µM | 34.3 µM | 18 nM | 67 nM | – | – | 7.4 µM | 73.8 µM | – | – | –
Nc1nc(O)c2ncn(COC(CO)CO)c2n1 [Ganciclovir (GCV), Ganciclovir] | > 100 µM | – | > 100000 nM | > 100000 nM | > 100 µM | – | > 100 µM | > 100 µM | – | – | –
C[C@H](Cn1cnc2c(N)ncnc21)OCP(=O)(O)O [Tenofovir (TNV), Tenofovir] | > 100 µM | – | 880 nM | 6600 nM | 82.9 µM | ineffective | – | > 100 µM | 79.6 µM | – | –
Nc1nc2c(ncn2CCC(CO)CO)c(=O)[nH]1 [Penciclovir (PCV), Penciclovir] | > 100 µM | – | > 100000 nM | > 100000 nM | > 100 µM | – | 98.1 µM | > 100 µM | – | – | –
O=C(O)P(=O)(O)O [Foscarnet (PFA), Foscarnet] | > 100 µM | – | 26900 nM | 71900 nM | 41.9 µM | – | – | > 100 µM | > 100 µM | – | –
C[C@]12CC[C@H](O)CC1=CC[C@@H]1[C@@H]2CC[C@]2(C)C(=O)CC[C@@H]12 [Dehydroepiandrosterone (DHEA), Dehydroepiandrosterone] | > 100 µM | – | 15100 nM | 71200 nM | 68.6 µM | – | – | – | 64.1 µM | > 100 µM | –
CN(C)c1ccc2nc3ccc(=[N+](C)C)cc-3sc2c1 [Methylene blue] | 2.7 µM | – | 24 nM | 500 nM | 0.42 µM | – | 7.2 µM | 6.1 µM | – | – | –
Nc1ncnc2c1ncn2[C@@H]1O[C@H](CO)[C@@H](O)[C@@H]1O [Vidarabine (ara-A), Vidarabine] | > 100 µM | – | 30600 nM | > 100000 nM | 4.4 µM | – | 50.5 µM | > 100 µM | – | – | –
CC(C)CN(C[C@@H](O)[C@H](Cc1ccccc1)NC(=O)O[C@H]1CO[C@H]2OCC[C@H]21)S(=O)(=O)c1ccc(N)cc1 [Darunavir] | > 100 µM | – | 3.6 nM | 6.5 nM | > 100 µM | essentially ineffective | – | – | – | – | –
Nc1nc(=O)n([C@@H]2CS[C@H](CO)O2)cc1F [Emtricitabine [(-)-FTC], Emtricitabine] | > 100 µM | – | 6.6 nM | 52 nM | > 100 µM | essentially inactive | > 100 µM | > 100 µM | – | – | –
O=c1[nH]c(=O)n([C@H]2C[C@H](O)[C@@H](CO)O2)cc1I [5-Iodo-2'-deoxyuridine (IdUrd), 5-Iodo-2'-deoxyuridine] | > 100 µM | – | 25100 nM | 38900 nM | 2.2 µM | – | 7.3 µM | 85.1 µM | – | – | low
CC(=O)Oc1ccccc1C(=O)O [Aspirin] | > 100 µM | – | > 100000 nM | > 100000 nM | > 100 µM | – | – | > 100 µM | 92.2 µM | – | –
NC(=O)c1ncn([C@@H]2O[C@H](CO)[C@@H](O)[C@H]2O)n1 [Ribavirin (RBV), Ribavirin] | > 100 µM | – | 6400 nM | > 100000 nM | 53 µM | – | 74.1 µM | > 100 µM | – | – | –
Nc1ccn(C[C@@H](CO)OCP(=O)(O)O)c(=O)n1 [Vistide (HPMPC), Vistide] | > 100 µM | – | > 100000 nM | > 100000 nM | 85.3 µM | – | – | > 100 µM | > 100 µM | – | –
CC(C)(C)NC(=O)[C@@H]1CN(Cc2cccnc2)CCN1C[C@@H](O)C[C@@H](Cc1ccccc1)C(=O)N[C@H]1c2ccccc2C[C@H]1O [Indinavir] | > 100 µM | – | 18 nM | 64 nM | > 100 µM | essentially ineffective | 69.9 µM | > 100 µM | – | – | –
